B1: BDNF: brain-derived neurotrophic factor, from Roche (protein, UniProt P23560 19-247, looked up)
Neurotrophic factor BDNF …: APMKEANIRGQGGLAYPGVRTHGTLESVNGPKAGSRGLTSLADTFEHVIEELLDEDQKVRPNEENNKDADLYTSRVMLSSQVPLEPPLLFLLEEYKNYLDAANMSMRVRRHSDPARRGELSVCDSISEWVTAADKKTAVDMSGGTVTVLEKVPVSKGQLKQYFYETKCNPMGYTKEGCRGIDKRHWNSQCRTTQSYVRALTMDSKKRIGWRFIRIDTSCVCTLTIKRGR

T1 sequence (Q63604 32-821): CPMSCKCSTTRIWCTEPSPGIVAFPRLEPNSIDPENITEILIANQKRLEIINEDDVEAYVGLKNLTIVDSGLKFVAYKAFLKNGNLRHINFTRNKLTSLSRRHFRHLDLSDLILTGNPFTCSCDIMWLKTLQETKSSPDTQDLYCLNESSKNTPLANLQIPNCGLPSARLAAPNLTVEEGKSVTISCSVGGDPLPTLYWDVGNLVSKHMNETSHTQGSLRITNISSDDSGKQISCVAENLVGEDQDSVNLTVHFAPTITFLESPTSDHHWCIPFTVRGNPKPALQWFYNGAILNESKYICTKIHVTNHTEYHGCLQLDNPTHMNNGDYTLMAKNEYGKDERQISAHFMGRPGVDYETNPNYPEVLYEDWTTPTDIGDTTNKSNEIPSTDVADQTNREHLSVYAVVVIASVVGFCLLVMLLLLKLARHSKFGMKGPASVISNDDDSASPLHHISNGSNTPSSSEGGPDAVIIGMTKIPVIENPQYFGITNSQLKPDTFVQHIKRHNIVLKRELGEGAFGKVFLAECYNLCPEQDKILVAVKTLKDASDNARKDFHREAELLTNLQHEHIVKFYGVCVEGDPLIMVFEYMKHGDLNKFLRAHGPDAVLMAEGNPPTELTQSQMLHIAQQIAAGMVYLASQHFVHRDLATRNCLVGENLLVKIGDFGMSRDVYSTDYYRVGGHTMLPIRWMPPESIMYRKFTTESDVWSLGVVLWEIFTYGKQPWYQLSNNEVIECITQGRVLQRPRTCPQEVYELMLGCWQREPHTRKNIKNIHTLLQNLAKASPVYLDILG

One experiment addresses T1, TrkB (Rattus norvegicus, UniProt Q63604).
T1 construct: endogenous in cells; host or cells: primary rat cortical neurons (E17 embryos, 13 DIV)
As to the kind of experiment: TrkB phosphorylation in primary rat cortical neurons (immunoblotting). Type of experiment: cell-based. Conditions: 500 nM compound, 20 min, primary rat cortical neurons, immunoblotting. The procedure:
Primary rat cortical neurons from E17 embryos (13 DIV) were treated with 500 nM various chemicals for 15 min. The neuronal cell lysates were collected and resolved on 10% SDS-PAGE. Immunoblotting was conducted with various antibodies. p-TrkB Y817 antibody was employed at 1:20000-40000 dilution.
Primary rat cortical neurons from E17 embryos (13 days in vitro (DIV)) were treated with 500 nM various chemicals for 15 min. The neuronal cell lysates were collected and resolved on 10% SDS-PAGE. Immunoblotting was conducted with various antibodies. p-TrkB Y817 antibody was employed at 1:20,000-40,000 dilution (top panel). Equal amount of TrkB was loaded in all of the samples (middle panel). P-Akt 473 ELISA analysis with the neuronal lysates (bottom panel).
7,8-dihydroxyflavone (7,8-DHF) is a small molecular TrkB agonist. Preliminary structure-activity relationship study (SAR) supports that 7,8-catechol moiety is essential for the agonistic effect by 7,8-DHF. To explore the structure-activity relationship (SAR) in depth, the TrkB stimulatory activity was examined by numerous flavonoid derivatives. The numeric positions and each ring's nomenclature are designated (FIG. 1A). Compounds were dissolved in DMSO, then diluted into […] with 1× PBS (final vehicle contains 10% DMSO/PBS) (FIG. 1B). Primary rat cortical neurons were treated with 500 nM compounds for 20 min. The cell lysates were analyzed by immunoblotting. […] Downstream activation of the TrkB target Akt was tightly correlated with TrkB activation patterns by these derivatives (FIG. 1C, bottom panel). As observed, the hydroxy groups on B ring can regulate 7,8-DHF's stimulatory activity on TrkB receptor. As 2′-hydroxy, especially 3′-hydroxy group, elevates the agonistic effect, whereas 4′-hydroxy group diminishes its stimulatory effect.
To compare the TrkB activation by these synthetic compounds, primary cortical cultures were prepared. Cortical neurons were treated with 500 nM of various compounds for 20 min and cell lysates were collected. […] Replacing the H-bond acceptor O atom with hydrogen bond donor NH abolishes its stimulatory effect. […] On the other hand, 7,8-DHF provoked TrkB activation with the minimal concentration of 100 nM (FIG. 2B, right panels). To further study 4′-DMA-7,8-DHF's kinetics on TrkB activation, primary neurons were treated for various time points. 4′-DMA-7,8-DHF swiftly activated TrkB as soon as 5 minutes following treatment. […] To compare the stimulatory effect on TrkB receptor in mouse brains, 1 mg/kg of the synthesized derivatives were injected into C57BL/6J mice. TrkB activation was monitored at different time points.
Additional compounds are listed as designated from a to m (FIG. 6A). The compounds were dissolved in DMSO, then diluted into 500 μM with 1× PBS (final vehicle contains 10% DMSO/PBS). The primary rat cortical neurons (13 DIV) were treated with 500 nM compounds for 20 min. The cell lysates were analyzed by immunoblotting. […] Moreover, p-Akt ELISA was monitored to quantitatively analyze the agonistic activities of these compounds.
(A western blot detects proteins with antibodies after separation by electrophoresis.)
For `O=c1c(O)c(-c2ccc(O)c(O)c2)oc2c(O)c(O)cc(O)c12` [3,5,7,8,3′,4′-hexahydroxylatedflavone, reference compound], the “TrkB activation (phosphorylation) compared to vehicle control” value is reported as “completely blocked TrkB phosphorylation”.
For `O=c1c(O)c(-c2ccccc2O)oc2c(O)c(O)ccc12` [3,7,8,2′-tetrahydroxyflavone], the “TrkB activation (phosphorylation) compared to vehicle control” value is recorded as “stimulated TrkB activation”.
Turning to `O=c1c(O)c(-c2ccccc2)oc2cc(O)ccc12` [3,7-dihydroxyflavone], the “TrkB activation (phosphorylation) compared to vehicle control” value is “stimulated TrkB activation”.
As to `O=c1cc(-c2ccccc2)oc2c(O)c(O)cc(O)c12` [5,7,8-trihydroxyflavone], the “TrkB activation (phosphorylation) compared to vehicle control” value is given as “stimulated TrkB activation”.
For `O=c1cc(-c2cccc(O)c2)oc2cc(O)ccc12` [7,3′-dihydroxyflavone], the “TrkB activation (phosphorylation) compared to vehicle control” value is listed as “even more robust stimulatory effect on TrkB phosphorylation than the lead”.
For `O=c1cc(-c2ccccc2O)oc2c(O)c(O)ccc12` [7,8,2′-trihydroxyflavone], the “TrkB activation (phosphorylation) compared to vehicle control” value is reported as “stimulated TrkB activation”.
Still for that read-out and setting: next, `O=c1cc(-c2cccc(O)c2)oc2c(O)c(O)ccc12` [7,8,3′-trihydroxyflavone]: “even more robust stimulatory effect on TrkB phosphorylation than the lead”.
Take `O=c1cc(-c2ccc(O)cc2)oc2c(O)c(O)ccc12` [7,8,4′-trihydroxyflavone, reference compound]: the “TrkB activation (phosphorylation) compared to vehicle control” value was “barely activated TrkB”.
The same measure, in the same setting: as for `COc1ccc(-c2cc(=O)c3ccc(O)cc3o2)cc1` [7-hydroxy-4′methoxyflavone, reference compound], the entry is “barely activated TrkB”; as for `COc1ccc2c(=O)cc(-c3ccccc3)oc2c1O` [8-hydroxy-7-methoxyflavone, reference compound], “barely activated TrkB”; as for `O=c1cc(-c2ccc(F)cc2)[nH]c2c(O)c(O)ccc12` [#2, 2-(4-fluorophenyl)-7,8-dihydroxyquinolin-4(1H)-one], “failed to provoke TrkB activation”.
With `O=c1cc(-c2ccccc2)[nH]c2c(O)c(O)ccc12` [#3, 7,8-dihydroxy-2-phenylquinolin-4(1H)-one], the “TrkB activation (phosphorylation) compared to vehicle control” value is “failed to provoke TrkB activation”.
As to `O=c1cc(-c2cncnc2)oc2c(O)c(O)ccc12` [#4, 7,8-dihydroxy-2(pyrimidin-5-yl)-4H-chromen-4-one], the “TrkB activation (phosphorylation) compared to vehicle control” value is on record as “strongly activated TrkB”.

The experiment is the same for the next values; noted with them: BDNF 100 ng/ml, primary rat cortical neurons.
As to B1, the “TrkB activation (phosphorylation)” value is on record as “strongly activated TrkB”.

In another experiment the target is T2, TrkB F616A (Mus musculus, UniProt P15209, F616A).
T2 construct: from tissue; host or cells: TrkB F616A knock-in mice (brain; whole animal in the forced swim test)
T2 sequence (P15209 32-821 F616A): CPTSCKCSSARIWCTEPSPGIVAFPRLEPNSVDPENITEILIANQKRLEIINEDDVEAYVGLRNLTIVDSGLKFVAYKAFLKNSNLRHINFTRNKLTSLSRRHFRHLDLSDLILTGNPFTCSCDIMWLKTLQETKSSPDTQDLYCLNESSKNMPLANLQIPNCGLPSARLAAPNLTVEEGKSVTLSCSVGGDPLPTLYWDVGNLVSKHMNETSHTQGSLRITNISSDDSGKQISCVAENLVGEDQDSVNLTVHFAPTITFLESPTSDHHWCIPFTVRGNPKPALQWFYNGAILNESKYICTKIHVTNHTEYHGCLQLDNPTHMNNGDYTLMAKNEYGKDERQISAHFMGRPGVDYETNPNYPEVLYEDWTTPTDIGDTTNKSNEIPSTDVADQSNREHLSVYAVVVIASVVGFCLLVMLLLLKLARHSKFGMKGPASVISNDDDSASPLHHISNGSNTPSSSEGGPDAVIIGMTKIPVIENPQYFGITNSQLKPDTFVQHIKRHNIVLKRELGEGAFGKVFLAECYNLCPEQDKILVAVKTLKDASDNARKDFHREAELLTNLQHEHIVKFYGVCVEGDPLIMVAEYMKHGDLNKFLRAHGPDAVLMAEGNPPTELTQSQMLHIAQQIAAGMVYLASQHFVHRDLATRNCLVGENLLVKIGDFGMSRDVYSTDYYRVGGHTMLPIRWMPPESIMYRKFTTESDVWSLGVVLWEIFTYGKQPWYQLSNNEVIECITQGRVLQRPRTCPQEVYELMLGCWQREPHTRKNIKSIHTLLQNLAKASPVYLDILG
As to the kind of experiment: Forced swim test in TrkB F616A knockin mice with or without 1NMPP1. Type of experiment: in vivo. Conditions: TrkB F616A knockin mice, control groups without TrkB agonist. On the procedure: Male TrkB knockin mice were given the regular drinking water or 1NMPP1 (25 μM) containing drinking water one day before we started to inject the drugs and sustained throughout the whole experiment. The indicated control (saline) and drugs were administrated for 5 days. […] None of the drugs produced a significant change in 1NMPP1 treated TrkB KI mice (n=6 to 7 mice) as compared to control.
TrkB F616A knockin mice were used to assess whether the behavior responses by 7,8-DHF and its derivative is mediated by TrkB receptor. Transgenic mice were subjected to saline or 1NMPP1 pretreatment, respectively.
On to `CC(C)(C)n1nc(Cc2cccc3ccccc23)c2c(N)ncnc21` [1NMPP1], for which the “immobility time, 1NMPP1 treated versus saline control group” value is “No significant difference”.
